Measured values reported in patent US10086082B2, “Plant steroids and uses thereof” (DAVIDSON LOPEZ LLC, priority 2011, dated 2018).

Test system: Caco-2 cells
Assay: Gene expression profiling of Caco-2 cells treated with compounds (Illumina HT-12 arrays, Volcano plots)
Type: cell-based, human
Details: gene array; for Interleukin-1, beta gene regulation: 24 hours exposure
Description: Gene expression profiles were generated from 2.5 μM and 25 μM treatments of Caco-2 cells (ATCC).
All compounds were individually applied to Caco-2 cells (250,000/well). After RNA isolation of each treatment, the isolated RNAs were individually labeled as cDNA probes and applied to Illumina HT-12 array chips.
Key Genes Affected per Gene Class: Using the Inforsense Suite of Data Analysis tool (IDBS), a total of 36 Volcano plots were generated against 36 gene array assays (triplicate array assays per nontreatment and treatment of compounds). […] Genes were identified on both sides of the volcano plots (shaded in gray in FIG. 2) that were at a correlation coefficient of p<0.05.
The human colon adenocarcinoma cell line Caco-2 was cultured in Dulbecco's Modified Eagle's Medium (Sigma-Aldrich) with 4.5 g/l glucose, L-glutamine, NaHCO3 and pyridoxine HCl supplemented with 1% (vol/vol) nonessential amino acids, 1% Na-pyruvate, 1% penicillin/streptomycin, and 10% (vol/vol) heat inactivated fetal calf serum, all purchased from Gibco BRL. Cell cultures were transferred weekly by trypsinization and incubated at 37° C. in a humidified incubator containing 5% CO2. […] Cells were exposed to each compound, respectively, for 24 hours.
Total RNA was isolated according to the TRIzol manufacturer's instructions (Invitrogen). RNA quality was assessed with a 2100 Bioanalyzer (Agilent). RNA from pooled triplicates of the various cell treatments, all with an RNA integrity number >7, was further purified with Qiagen RNeasy columns. From 300 ng of total RNA, the Illumina TotalPrep RNA Amplification kit (Ambion) was used to generate amplified biotinylated cRNA after reverse transcription by the Eberwine procedure. cRNA (900 ng) was hybridized overnight to Illumina HT-12 BeadArrays, which were then washed and stained with streptavidin-Cy3 (Amersham-Pharmacia Biotech) according to the Illumina protocol. Arrays were scanned on a BeadArray Reader (Illumina).
Specific transcripts within the biotinylated cRNA were measured by fluorescent imaging after direct hybridization to HT-12 bead arrays, which contain 12 arrays per slide, each with an average of 15 beads for each of 48,803 probes measuring 37,846 annotated genes and additional transcripts. Raw measurements of the intensity of each bead were captured directly and processed as “bead-level” for the samples, as described below. For both treated and non-treated samples, measurements were processed as “probe-level” data by GenomeStudio software (Illumina). […]

| Molecule | Interleukin-1, beta gene regulation | interleukin receptor and interleukins affected | similarity of gene profile to prednisone |
| --- | --- | --- | --- |
| Stigmasterol Triethyleneglycol Prednisolone Succinate [SE-22] | up-regulated |  |  |
| CC[C@H](/C=C/[C@@H](C)[C@H]1CC[C@H]2[C@@H]3CC=C4C[C@@H](OC(=O)CCC(=O)OCC(=O)[C@@]5(O)CC[C@H]6[C@@H]7CCC8=CC(=O)C=C[C@]8(C)[C@H]7[C@@H](O)C[C@@]65C)CC[C@]4(C)[C@H]3CC[C@]12C)C(C)C [SE-24, Stigmasterol Prednisolone Succinate Diester] | up-regulated | affected | more similar gene profiles to prednisone |
